# Patent publication US8142760B2, “Vaccination for Lawsonia intracellularis” (priority 2008, dated 2012)
# Test system: Lawsonia intracellularis
# Assay: Fecal PCR for L. intracellularis in pigs after controlled exposure
# Format: in vivo
# Conditions: day 28, after 14 days of MECADOX 50 g/ton in feed started 14 days post inoculation
# Source text: Four groups of pigs totaling 1409 pigs, between 8 and 10 weeks of age and sourced from a single nursery site, were moved to a finishing barn containing four separate rooms. The barn was filled over four consecutive weeks, filling one room per week. Each group of approximately 350 pigs was weighed as a group before placement into a barn room. The four rooms were alternately assigned to two treatment groups, inoculated (T1) and non-inoculated (T2). Sixteen animals per room were randomly selected and individually identified with ear tags.
# On day 0, T1 pigs received inoculum of mucosal homogenate from PE-diseased intestine. Samples of inoculum were submitted to a diagnostic lab for quantification of L. intracellularis organisms before administration. The inoculum was delivered to each pen through the watering system and calibrated to deliver an average dose of 10^5±10 L. intracellularis organisms per pig over a 4-6 hour period. T2 pigs received no inoculum.
# All pigs received MECADOX (carbadox) (50 g/ton) for at least 14 days in their nursery diets and up until day −3. Non-medicated feed was fed days −3 to 14 (exposure period) to both treatment groups. MECADOX (carbadox) 50 grams/ton medicated feed was fed to all pigs on days 14 to 28. From day 28 to end of study, all pigs received non-medicated feed. […]
structure (smiles),measurement,value
"COC(=O)N/N=C/c1c[n+]([O-])c2ccccc2[n+]1[O-] [MECADOX (carbadox), carbadox]","sampled, infected pigs negative by fecal PCR for L. intracellularis",100%
